Data published in paper PMC8623398, “Investigation of the Mechanisms of Cytotoxic Activity of 1,3-Disubstituted Thiourea Derivatives” (Pharmaceuticals, 2021).

Experiments:
SW620 cells [1] = test: MTT assay, SW620; type: cell-based, human; conditions: Homo sapiens, SW-620, 72 h, 50% growth inhibition
Description: (§1) As a first step in assessing their cytotoxic properties, all thioureas of the series were assayed against four human carcinoma cell lines, such as SW480 (primary colon cancer), SW620 (metastatic colon cancer), PC3 (metastatic prostate cancer), and K-562 (chronic myelogenous leukemia), as well as against the normal cell line HaCaT (immortalized human keratinocytes). Table 1 lists the compound concentrations that produced 50% of growth inhibition (IC50, μM), generated by the MTT method, in comparison with two commonly used chemotherapeutic agents, doxorubicin and cisplatin.
(§2) The human primary (SW480), metastatic (SW620) colon cancer, metastatic prostate cancer (PC3), chronic myelogenous leukemia (K-562), and human immortal keratinocyte (HaCaT) cell lines were purchased from the American Type Culture Collection (ATCC, Rockville, MD, USA). The cells were cultured in medium according to protocols (MEM for SW480 and SW620, RPMI 1640 for PC3 and K-562, and DMEM for HaCaT cells), supplemented with 10% FBS, penicillin (100 U/mL) and streptomycin (100 μg/mL), and cultured in a 37 °C/5% CO2 humidified incubator. The cells were cultured until appropriate confluence was achieved (80–90%). Next, they were harvested by treatment with 0.25% trypsin (Gibco Life Technologies, Waltham, MA, USA) excluding the non-adherent K-562 cell line and used for studies.
(§3) Cells without the studied compounds in medium were used as a control.
(§4) The cell viability was assessed by determination of MTT salt [3-(4,5-dimethylthiazol-2-yl)-2,5-diphenyltetrazoliumbromide] conversion by mitochondrial dehydrogenase. The MTT assay was performed as previously described. Alternatively, non-adherent leukemic cells were centrifuged in a microplate centrifuge (400× g, 5 min) during the collection stages. Experiments were repeated three times. Cell viability was presented as a percent of MTT reduction in the treated cells versus the control cells. The number of viable cells cultured without the studied compounds was assumed as 100%. A decreased relative MTT level indicated decreased cell viability. Thiourea compounds with the highest cytotoxic potential assessed by MTT determination (with the lowest IC50) were chosen for subsequent assessments of cytotoxicity mechanisms.

IL-6 level, HaCaT cells = test: IL-6 level ELISA, HaCaT; type: cell-based, human; conditions: 72 h, compound at IC50 concentration
Description: Because of the low secretion of IL-6 by leukemic cells compared to solid tumors, and in addition to the lack of IL-6 receptors in K-562 cells, studies of the effect of derivatives 1–3, 8, and 9 on the inhibition of IL-6 release were carried out on primary and secondary solid tumor cells (SW480, SW620, and PC3). A remarkable inhibition of the IL-6 level was denoted for both colon cancer cell lines. Compound 2, identified as the strongest inhibitor, reduced the interleukin level by 54% (in SW480 cells) and 63% (SW620 cells). A significant effect was also observed in these cells for its structural isomer 3 (39% and 23% of inhibition, respectively). Additionally, compound 3 considerably affected the IL-6 level produced by PC3 cells, and reduced it by 33%. Similarly, the treatment with derivative 1 was effective for both colon cancer cells. In its presence, IL-6 release decreased by 28–36%, as compared to controls. For monosubstituted derivatives 8 and 9, the observed IL-6-reducing influence was weaker. They both inhibited IL-6 secretion in SW480 and SW620 cell lines by 25–32%. In contrast to compound 9, thiourea 8 additionally diminished the cytokine level in PC3 cells by 26%.
The IL-6 concentration in all studied cancer cells and normal HaCaT cell lines was measured by an ELISA kit (Diaclon SAS Besancon CEDEX, Besançon, France). […] IL-6 in cell culture supernatant was measured using the enzyme-linked immunosorbent assay in accordance with the manufacturer’s protocol.

SW620 cells [2] = test: Annexin V-FITC/PI flow cytometry, SW620; type: cell-based, human; conditions: SW620, 72 h, IC50 concentration
Description: (§5) To estimate the mechanism of anticancer activity of the selected compounds 1–3, 8, and 9, their effect on both early and late apoptosis was evaluated by flow cytometry analysis. […] Additionally, visible late apoptosis-inducing properties in these cell lines were denoted for the compound 9 (47% ± 3.0%), which was twice as strong towards the colon tumor cells mentioned above. The apoptotic properties of analogs 3 and 8 in K-562 cells varied from 30% ± 1.6% to 33% ± 2.3%. […] Whereas the apoptosis-generating influence of derivatives 2 and 3 on normal keratinocytes was higher (29% and 23%), their selectivity measured by MTT methods is favorable. The obtained results are in agreement with the IC50 values assigned to pathological cancer cell lines. The cells were cultured and harvested under the conditions described in Section 3.2.1. […] The effect of these compounds on the process of early and late apoptosis and necrosis was determined as described previously by dual staining with Annexin V:FITC and propidium iodide, according to the manufacturer’s protocol (Becton Dickinson). The cells that were Annexin V:FITC positive and PI negative were identified as early apoptotic, and Annexin V:FITC and PI positive as late apoptotic or necrotic.

PC3 cells = test: MTT assay, PC3; type: cell-based; conditions: Homo sapiens, PC-3, 72 h, 50% growth inhibition
Description: as §1, §2, §3, §4

K-562 cells = test: Trypan blue assay, K-562; type: cell-based, human; conditions: K-562, 72 h; for Cell Number × 10^5 / Viability (%): compound at IC50 concentration; for reduction in live cell number: IC50 concentration, vs control
Description: (§6) In order to estimate the tumor and normal cell population density and their viability after treatment with compounds 1–3, 8, and 9, the trypan blue dye exclusion assay was performed. The live cell number of all cancerous cells incubated for 72 h with the studied thioureas was considerably lower in comparison with the controls (Table 2; Figure S1A). The highest reduction in cell amount was denoted for both colon SW480 and SW620 cells treated with the dichlorophenyl derivative 2, and it accounted for 93%. […] Similarly, a noticeable decline in both colon cancer cell populations was observed after treatment with the ortho-substituted compound 8. The number of live cells equaled 12% and 18%, respectively, as compared to controls. This thiourea also led to a reduction of PC3 cells of 38%, and leukemia K-562 cell lines of 27%. The number of SW620 and PC3 cells decreased by 72% and 63% in the presence of para-substituted compound 9. However, the reducing influence of this thiourea on the number of other cancerous cells was at the level of 21–32%. […] A significant effect on the other studied pathological cells was also noticed and accounted for 32–46%. Furthermore, the derivative 3 reduced the amount of live cancer cells by 32–59%, of which its decreasing impact on colon cancer cells was the greatest.
(§7) The live cell count was assessed by the trypan blue exclusion dye assay using an automated cell counter (CountessTM Invitrogen, Waltham, MA, USA). Untreated cells were used as the control.

Trypan blue assay, HaCaT = type: cell-based, human; conditions: human, HaCaT cells, compound at IC50 concentration
Description: as §6, §7

HaCaT cells = test: Trypan blue assay, HaCaT; type: cell-based, human; conditions: 72 h, compound at IC50 concentration
Description: as §6, §7

SW480 cells = test: Annexin V-FITC/PI flow cytometry, SW480; type: cell-based, human; conditions: SW480, 72 h, IC50 concentration
Description: as §5

| SMILES | IC50 (SW620 cells [1]) | IL-6 Concentration (IL-6 level, HaCaT cells) | cells in late apoptosis (SW620 cells [2]) | IC50 (PC3 cells) | Cell Number × 10^5 (K-562 cells) | Viability (%) (K-562 cells) | viability at 72 h (Trypan blue assay, HaCaT) | Cell Number × 10^5 (HaCaT cells) | cells in late apoptosis (SW480 cells) | reduction in live cell number (K-562 cells) |
| --- | --- | --- | --- | --- | --- | --- | --- | --- | --- | --- |
| FC(F)(F)c1cccc(NC(S)=Nc2ccc(Cl)cc2Cl)c1 [Compound 3, 1-(2,4-dichlorophenyl)-3-[3-(trifluoromethyl)phenyl]thiourea] | 5.8 ± 0.76 µM | 8.9 ± 0.01 pg/mL | ≤ 26% | 13.7 ± 7.04 µM | 3.0 ± 0.27 × 10^5 | 85 ± 1.20% | 96 ± 3.01% | 7.8 ± 0.14 × 10^5 |  |  |
| FC(F)(F)c1cccc(NC(=S)Nc2ccc(Cl)c(Cl)c2)c1 [Compound 2, 1-(3,4-dichlorophenyl)-3-[3-(trifluoromethyl)phenyl]thiourea] | 1.5 ± 0.72 µM | 9.1 ± 0.03 pg/mL | 99% ± 0.5% | 31.7 ± 2.07 µM | 1.0 ± 0.21 × 10^5 | 55 ± 1.03% | 84 ± 1.03% | 1.6 ± 0.31 × 10^5 | 95% ± 1.5% | 66% |
| FC(F)(F)c1cccc(NC(=S)Nc2ccc(Cl)cc2)c1 [Compound 9, 1-(4-chlorophenyl)-3-[3-(trifluoromethyl)phenyl]thiourea] | 6.7 ± 1.74 µM | 9.0 ± 0.01 pg/mL | ≤ 26% | 22.6 ± 1.25 µM | 3.5 ± 0.22 × 10^5 | 90 ± 2.40% | 98 ± 1.5% | 8.6 ± 0.12 × 10^5 | 24% ± 0.4% |  |
| FC(F)(F)c1ccc(NC(=S)Nc2cccc(C(F)(F)F)c2)cc1 [Compound 8, 1-[3-(trifluoromethyl)phenyl]-3-[4-(trifluoromethyl)phenyl]thiourea] | 7.6 ± 1.75 µM | 9.1 ± 0.06 pg/mL | ≤ 26% | 6.9 ± 1.64 µM | 3.2 ± 0.14 × 10^5 | 88 ± 1.10% | 98 ± 1.02% | 4.9 ± 0.28 × 10^5 | 97% ± 1.2% | 27% |
| Fc1ccc(NC(=S)Nc2cccc(C(F)(F)F)c2)cc1Cl [Compound 1, 1-(3-chloro-4-fluorophenyl)-3-[3-(trifluoromethyl)phenyl]thiourea] | 9.4 ± 1.85 µM | 8.7 ± 0.03 pg/mL | 57% ± 1.2% | 53.6 ± 2.94 µM | 1.8 ± 0.24 × 10^5 | 93 ± 2.05% | 97 ± 1.33% | 6.5 ± 0.15 × 10^5 | 60% ± 1.8% |  |
